Assay results taken from patent publication US10035790B2, “RORγ modulators” (BRISTOL-MYERS SQUIBB COMPANY, priority 2012, dated 2018).

Each compound was assayed against T1, ligand binding domain of human RORγ (A262-S507) (Homo sapiens, UniProt P51449) (assay: General RORγ SPA binding assay (competition with [3H]25-hydroxycholesterol)). Details: RORγ SPA binding assay, inhibition of [3H]25-hydroxycholesterol binding; read-out: IC50.
T1 construct: made in house; host or cells: E. coli
T1 sequence (P51449 262-507): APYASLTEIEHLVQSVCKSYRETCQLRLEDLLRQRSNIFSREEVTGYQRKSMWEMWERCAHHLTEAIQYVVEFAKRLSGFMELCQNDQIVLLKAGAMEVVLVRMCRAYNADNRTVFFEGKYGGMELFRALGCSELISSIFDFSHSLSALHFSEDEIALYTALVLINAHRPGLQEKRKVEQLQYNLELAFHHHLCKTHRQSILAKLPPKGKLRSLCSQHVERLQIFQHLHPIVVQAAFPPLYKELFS
In short: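 N-terminally His-tagged protein was expressed in E. coli and nickel-purified. Then 50 nM protein was preincubated with compound for 15 min at room temperature in PBS with 0.5% fatty acid free BSA, followed by radioligand for 15 min and copper His-tag SPA beads for 30 min. IC50 came from percent inhibition of binding.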
`Cc1ncc(C(=O)NOc2cccc(C(F)(F)F)c2)c(C2CCN(C(=O)Cc3c(F)cccc3F)CC2)n1` [Compound H1, 4-{1-[(2,6-Difluorophenyl)acetyl]piperidin-4-yl}-2-methyl-N-{[3-(trifluoromethyl)-phenyl]oxy}pyrimidine-5-carboxamide] was tested, and the IC50 was 327 nM. Compound `Cc1ncc(C(=O)NCc2ccnc(Cl)c2)c(C2CCN(C(=O)Cc3c(F)cccc3F)CC2)n1` [Compound A56, N-((2-chloropyridin-4-yl)methyl)-4-(1-(2-(2,6-difluorophenyl)acetyl)piperidin-4-yl)-2-methylpyrimidine-5-carboxamide] has an IC50 of 19.3 nM. For `Cc1cc(C)cc(CNC(=O)c2cnc(C)nc2C2CCN(CCc3ccccc3Cl)CC2)c1` [Compound A100, 4-(1-(2-chlorophenethyl)piperidin-4-yl)-N-(3,5-dimethylbenzyl)-2-methylpyrimidine-5-carboxamide], the IC50 was 433 nM. In the case of `CC(C)Oc1ncc(C(=O)NCc2cccc(Cl)c2)c(C2CCN(C(=O)Cc3c(F)cccc3F)CC2)n1` [Compound A95, N-(3-chlorobenzyl)-4-(1-(2-(2,6-difluorophenyl)acetyl)piperidin-4-yl)-2-isopropoxypyrimidine-5-carboxamide], the IC50 is reported as 175 nM. Work on `Cc1nc(C)c(C=NOc2cccc(C(F)(F)F)c2)c(C2CCN(C(=O)Cc3c(F)cccc3F)CC2)n1` [Compound B31, 4-{1-[(2,6-Difluorophenyl)acetyl]piperidin-4-yl}-2,6-dimethylpyrimidine-5-carbaldehyde O-[3-(trifluoromethyl)phenyl]oxime] yielded an IC50 of 3.4 nM. Compound `C/C(=N\Oc1cccc(C(F)(F)F)c1)c1cnc(C)nc1C1CCN(C(=O)Nc2c(F)cccc2F)C(C)C1` (stereo not drawn) [Compound B47, N-(2,6-Difluorophenyl)-2-methyl-4-{2-methyl-5-[(1E)-N-{[3-(trifluoromethyl)phenyl]oxy}ethanimidoyl]pyrimidin-4-yl}piperidine-1-carboxamide] has an IC50 of 76.4 nM. `Nc1ncc(C(=O)COc2ccnc(C(F)(F)F)n2)c(C2CCN(C(=O)c3c(F)cccc3F)CC2)n1` [Compound M13, 1-(2-Amino-4-{1-[(2,6-difluorophenyl)carbonyl]piperidin-4-yl}pyrimidin-5-yl)-2-{[2-(trifluoromethyl)pyrimidin-4-yl]oxy}ethanone] was tested, and the IC50 was 344 nM. With `Cc1cc(C)cc(CNC(=O)c2cnc(C)nc2C2CCN(C(=O)c3ccccc3F)CC2)c1` [Compound A23, N-(3,5-dimethylbenzyl)-4-(1-(2-fluorobenzoyl)piperidin-4-yl)-2-methylpyrimidine-5-carboxamide] the IC50 was 254 nM. `Cc1cc(C(F)(F)F)nc(CNC(=O)c2cnc(C)nc2C2CCN(C(=O)Cc3c(F)cccc3F)CC2)n1` [Compound A67, 4-(1-(2-(2,6-difluorophenyl)acetyl)piperidin-4-yl)-2-methyl-N-((4-methyl-6-(trifluoromethyl)pyrimidin-2-yl)methyl)pyrimidine-5-carboxamide] was tested, and the IC50 was 85 nM. With `CCC/C(=N\Oc1cccc(C(F)(F)F)c1)c1c(C)nc(C)nc1C1CCN(C(=O)Cc2c(F)cccc2F)CC1` [Compound B48, (1E)-1-(4-{1-[(2,6-difluorophenyl)acetyl]piperidin-4-yl}-2,6-dimethylpyrimidin-5-yl)butan-1-one O-[3-(trifluoromethyl)phenyl]oxime] the IC50 was 241 nM. `CC(O)(COc1cccc(C(F)(F)F)n1)c1cnc(N)nc1C1CCN(C(=O)Nc2c(F)cccc2F)CC1` (stereo not drawn) [Compound D27, 4-[2-Amino-5-(1-hydroxy-1-methyl-2-{[6-(trifluoromethyl)pyridin-2-yl]oxy}ethyl)pyrimidin-4-yl]-N-(2,6-difluorophenyl)piperidine-1-carboxamide] showed an IC50 of 3.6 nM. In the case of `CCOCC(C)(OCc1cc(C)cc(C)c1)c1cnc(C)nc1C1CCN(C(=O)Cc2c(F)cccc2F)CC1` (stereo not drawn) [Compound E2, 2-(2,6-difluorophenyl)-1-(4-(5-(2-((3,5-dimethylbenzyl)oxy)-1-ethoxypropan-2-yl)-2-methylpyrimidin-4-yl)piperidin-1-yl)ethanone], the IC50 is reported as 5.3 nM. For `Cc1nc(C)c(-c2ncc(-c3cccc(Cl)c3)o2)c(C2CCN(C(=O)Cc3c(F)cccc3F)CC2)n1` [Compound C66, 5-[5-(3-Chlorophenyl)-1,3-oxazol-2-yl]-4-{1-[(2,6-difluorophenyl)acetyl]piperidin-4-yl}-2,6-dimethylpyrimidine], the IC50 was 65.9 nM. `C/C(=N\Oc1cccc(C(F)(F)F)c1)c1cnc(N)nc1C1CCN(C(=O)Nc2c(F)cccc2F)CC1` [Compound B51, 4-{2-Amino-5-[(1E)-N-{[3-(trifluoromethyl)phenyl]oxy}ethanimidoyl]pyrimidin-4-yl}-N-(2,6-difluorophenyl)piperidine-1-carboxamide] was tested, and the IC50 was 8.6 nM. Compound `CC(=O)NCCC(=O)NCC(O)(COc1cccc(C(F)(F)F)n1)c1cnc(C)nc1C1CCN(C(=O)Nc2c(F)cccc2F)CC1` (stereo not drawn) [Compound N41, 4-(5-{2-[(N-Acetyl-beta-alanyl)amino]-1-hydroxy-1-({[6-(trifluoromethyl)pyridin-2-yl]oxy}methyl)ethyl}-2-methylpyrimidin-4-yl)-N-(2,6-difluorophenyl)piperidine-1-carboxamide] has an IC50 of 150 nM. `C/C(=N\Oc1ccnc(C(F)(F)F)n1)c1cnc(N)nc1C1CCN(C(=O)Nc2c(F)cccc2F)CC1` [Compound B54, 4-{2-Amino-5-[(1E)-N-{[2-(trifluoromethyl)pyrimidin-4-yl]oxy}ethanimidoyl]pyrimidin-4-yl}-N-(2,6-difluorophenyl)piperidine-1-carboxamide] was tested, and the IC50 was 168 nM. Work on `Cc1nc(C2CCN(C(=O)Cc3c(F)cccc3F)CC2)c(C(=O)NCc2cccc(C(F)(F)F)n2)c(=O)[nH]1` [Compound I1, 4-{1-[(2,6-Difluorophenyl)acetyl]piperidin-4-yl}-2-methyl-6-oxo-N-{[6-(trifluoromethyl)pyridin-2-yl]methyl}-1,6-dihydropyrimidine-5-carboxamide] yielded an IC50 of 40.3 nM. `Cc1ncc(C(F)COc2cccc(C(F)(F)F)n2)c(C2CCN(C(=O)Nc3c(F)cccc3F)CC2)n1` (stereo not drawn) [Compound N22, N-(2,6-Difluorophenyl)-4-[5-(1-fluoro-2-{[6-(trifluoromethyl)pyridin-2-yl]oxy}ethyl)-2-methylpyrimidin-4-yl]piperidine-1-carboxamide] was tested, and the IC50 was 7 nM. Work on `[2H]C([2H])c1nc(C)c(-c2nnc(-c3ccnc(C(F)(F)F)n3)o2)c(C2CCN(C(=O)C([2H])c3c(F)cccc3F)CC2)n1` (stereo not drawn) [Compound C37, 4-{1-[(2,6-Difluorophenyl)acetyl-2-d]piperidin-4-yl}-2-methyl-d2-6-methyl-5-{5-[2-(trifluoromethyl)pyrimidin-4-yl]-1,3,4-oxadiazol-2-yl}pyrimidine] yielded an IC50 of 22.1 nM. `CC(=O)Nc1ncc(C(C)(O)COc2ccnc(C(F)(F)F)n2)c(C2CCN(C(=O)Cc3c(F)cccc3F)CC2)n1` (stereo not drawn) [Compound D33, N-[4-{1-[(2,6-Difluorophenyl)acetyl]piperidin-4-yl}-5-(1-hydroxy-1-methyl-2-{[2-(trifluoromethyl)pyrimidin-4-yl]oxy}ethyl)pyrimidin-2-yl]acetamide] gave an IC50 of 14 nM. With `Cc1ncc(C(O)(CO)COc2cccc(C(F)(F)F)n2)c(C2CCN(C(=O)Nc3c(F)cccc3F)CC2)n1` (stereo not drawn) [Compound N32, N-(2,6-Difluorophenyl)-4-{5-[1,2-dihydroxy-1-({[6-(trifluoromethyl)pyridin-2-yl]oxy}methyl)ethyl]-2-methylpyrimidin-4-yl}piperidine-1-carboxamide] the IC50 was 5.7 nM. In the case of `COc1ncc(C(C)(O)COc2cccc(C(F)(F)F)n2)c(C2CCN(C(=O)Nc3c(F)cccc3F)CC2)n1` (stereo not drawn) [Compound D45, N-(2,6-Difluorophenyl)-4-[5-(1-hydroxy-1-methyl-2-{[6-(trifluoromethyl)pyridin-2-yl]oxy}ethyl)-2-(methyloxy)pyrimidin-4-yl]piperidine-1-carboxamide], the IC50 is reported as 3.4 nM. In the case of `Cc1nc(C)c(-c2nnc(-c3ccnc(C(F)(F)F)n3)o2)c(C2CCN(C(=O)C(F)(F)c3c(F)cccc3F)CC2)n1` [Compound C43, 4-{1-[(2,6-difluorophenyl)(difluoro)acetyl]piperidin-4-yl}-2,6-dimethyl-5-{5-[2-(trifluoromethyl)pyrimidin-4-yl]-1,3,4-oxadiazol-2-yl}pyrimidine], the IC50 is reported as 11.2 nM. `Cc1ncc(C(C)(O)CNc2cccc(C(F)(F)F)n2)c(C2CCN(C(=O)Nc3c(F)cccc3F)CC2)n1` (stereo not drawn) [Compound D16, N-(2,6-Difluorophenyl)-4-[5-(1-hydroxy-1-methyl-2-{[6-(trifluoromethyl)pyridin-2-yl]amino}ethyl)-2-methylpyrimidin-4-yl]piperidine-1-carboxamide] showed an IC50 of 12.3 nM. `C/C(=N\Oc1cc(Cl)nc(C(F)(F)F)c1)c1cnc(N)nc1C1CCN(C(=O)Nc2c(F)cccc2F)CC1` [Compound B55, 4-{2-Amino-5-[(1E)-N-{[2-chloro-6-(trifluoromethyl)pyridin-4-yl]oxy}ethanimidoyl]pyrimidin-4-yl}-N-(2,6-difluorophenyl)piperidine-1-carboxamide] gave an IC50 of 5.8 nM. Work on `Cc1ncc(-c2nnc(-c3ccnc(C(F)(F)F)n3)o2)c(C2CCN(C(=O)Cc3c(F)cccc3F)CC2)n1` [Compound C62, 4-{1-[(2,6-difluorophenyl)acetyl]piperidin-4-yl}-2-methyl-5-{5-[2-(trifluoromethyl)pyrimidin-4-yl]-1,3,4-oxadiazol-2-yl}pyrimidine] yielded an IC50 of 157 nM. `Cc1nc(C)c(-c2ncc(-c3cccc(Cl)c3)o2)c(C2CCN(C(=O)Nc3c(F)cccc3F)CC2)n1` [Compound C67, 4-{5-[5-(3-Chlorophenyl)-1,3-oxazol-2-yl]-2,6-dimethylpyrimidin-4-yl}-N-(2,6-difluorophenyl)piperidine-1-carboxamide] showed an IC50 of 111 nM.
